Data: paper PMC8490453, “PbrRALF2-elicited reactive oxygen species signaling is mediated by the PbrCrRLK1L13-PbrMPK18 module in pear pollen tubes” (Horticulture Research, 2021)
pKd: −log10 of the molar value. Blank lines part the entries; values can stand above or below the substance they belong to. In the oligonucleotide strings, read from the 5' end, every base follows the letter of its sugar. An asterisk marks phosphorothioate; unmarked linkages are phosphodiester. Other units and linkages are bracketed, terminal groups are in braces. A string of capitals states the bases alone. d = 2'-deoxy (DNA)

Columns and labels:
PbrRALF7 = test: Expression of PbrRALF7 after PbrRALF2-ODN treatment; type: cell-based, pear
Protocol: (§1) The MIQE guidelines were followed for quantitative RT-PCR (qRT–PCR) experiments. The Plant Total RNA Isolation Kit (FOREGENE, Chengdu, China) was used to extract total RNA, and DNase I was used to eliminate genomic DNA contaminants. A RevertAid First Strand cDNA Synthesis Kit was used to reverse transcription purified total RNA (3 μg) (Thermo Scientific, USA). Then, using SYBR Green Master Mix on a LightCycler® 480 II (Roche, Switzerland), quantitative PCR (qPCR) was performed on 20-μl samples according to the manufacturer’s instructions. The thermal cycle was performed at 95 °C for 5 min, followed by 45 cycles of 15 s at 95 °C and 15 s at 60 °C. The pear TUBULIN gene was used as an internal control, and relative expression levels were evaluated using the 2CT2 − △△CT method, as previously described. The primers for RT-PCR and qRT–PCR of PbrRALFs, PbrCrRLK1L13, PbrMPK18, and PbrTUB in pear are presented in Supplementary Tables S5 and S6, respectively.
(§2) Twenty-mer phosphorothioate oligonucleotides against PbrRALF2, PbrCrRLK1L13, PbrMPK18, and their sense controls (s-ODN) were synthesized with three 5′- and 3′-phosphorothioate-modified bases, and a scrambled mismatch sequence was used as a control. […] More than 35 pollen tubes were measured in each treatment, and the experiments were repeated at least three times. […]

PbrRALF11 = test: Expression of PbrRALF11 after PbrRALF2-ODN treatment; type: cell-based, pear
Protocol: as §1, §2

BAK1 = details: Arabidopsis; cited from earlier work
From the text: (§3) PbrCrRLK1L13 interacts with its PbrRALF2 ligand via exJM at the plasma membrane (Fig. 2B), similar to the region where LORELEI and LLG1 physically interact with FER[42], thus implying a potentially conserved role for the exJM region of CrRLK1Ls. […] Such phosphorylation by peptides has similarly been observed for multiple receptor-like kin ...

FER = details: Arabidopsis; cited from earlier work
From the text: as §3

[1] = target: GST-PbrCrRLK1L13-ECD (pear (Pyrus bretschneideri))
[2] = target: GST-PbrCrRLK1L13-ECD (pear (Pyrus bretschneideri)); test: ITC; MicroCal ITC200, 25 °C; 200 μM PbrRALF2 in the syringe titrated into 20 μM PbrCrRLK1L13 extracellular domain; 50 mM phosphate pH 7.4, 150 mM NaCl; one set of sites model; apparent
[3] = target: GST-PbrCrRLK1L13-ECD (pear (Pyrus bretschneideri)); test: SPR; Biacore T200, 25 °C; PbrCrRLK1L13 immobilised on a CM5 chip by amine coupling; running buffer 10 mM HEPES, 150 mM NaCl, 3 mM EDTA, pH 7.4; PbrRALF2 injected at 15, 30, 60 and 120 nM; steady-state 1:1 model; apparent

Substance: PbrRALF2-ODN-1: antisense ODN GTGATGGCGCTGCAGCCGCGG (antisense dG*dT*dG*dAdTdGdGdCdGdCdTdGdCdAdGdCdCdG*dC*dG*dG)
- expression level of PbrRALF7 (PbrRALF7): not affected
- expression level of PbrRALF11 (PbrRALF11): not affected

Substance: PbrRALF2-ODN-2: antisense ODN GCGCACCGTAGCTGATGT (antisense dG*dC*dG*dCdAdCdCdGdTdAdGdCdTdGdA*dT*dG*dT)
- expression level of PbrRALF7 (PbrRALF7): not affected
- expression level of PbrRALF11 (PbrRALF11): not affected

Substance: RALF1: Arabidopsis RALF1, ligand of FER (ATTKYISYQSLKRNSVPCSRRGASYYNCQNGAQANPYSRGCSKIARCRS; UniProt Q9SRY3 72-120, looked up)
- BAK1 phosphorylation (BAK1): BAK1[41] phosphorylation
- FER phosphorylation (FER): triggers FER

- IC50 of inhibition of pear pollen tube growth by E. coli-expressed PbrRALF2 (0.025-1 μM) [1]: 0.092 µM
- pKd [2]: 6.29
- pKd [3]: 7.14
Substance: recombinant PbrRALF2 (His-PbrRALF fusion protein from pCold-TF) (ligand)
